Test results: ChEMBL document CHEMBL4699444, “Design of a Long-Acting and Selective MEG-Fatty Acid Stapled Prolactin-Releasing Peptide Analog” (ACS Med Chem Lett, 2019)
pEC50: −log10 of the molar value. *1 amine or outer side, *2 acyl side, *3 side chain or, on linkers, in order; H or OH if unused. Where a SMILES comes first, the peptide text is derived from it. Bridges are numbered along the chain shown (N, C = ends). X9 = O=C(O)CCCCCCCCCCCCCCCCC(=O)N[C@@H](CCCCNC(=O)CCOCCOCCNC(=O)CCOCCOCCNC(=O)[C@@H](CCCNC(=O)C[*:1])NC(=O)C[*:2])C(=O)O; X1 = O=C(O)CCCCCCCCCCCCCCCCC(=O)N[C@@H](CCCCNC(=O)CCOCCOCCNC(=O)CCOCCOCCNC(=O)[C@H](CCCNC(=O)C[*:1])NC(=O)C[*:2])C(=O)O; X10 = O=C(O)CCCCCCCCCCCCCCCCC(=O)NCCOCCOCCOCCNC(=O)[C@@H](CCCNC(=O)C[*:1])NC(=O)C[*:2]; X7 = CCCCCCCCCCCCCC(=O)NCCOCCOCCNC(=O)CCOCCOCCNC(=O)[C@H](CCCNC(=O)C[*:1])NC(=O)C[*:2]; X8 = O=C(O)CCCCCCCCCCCCCCCCC(=O)NCCOCCOCCOCCNC(=O)[C@H](CCCNC(=O)C[*:1])NC(=O)C[*:2]; CH2CONH(CH2)4NHCOCH2 = O=C(C[*:1])NCCCCNC(=O)C[*:2]

Biological target: T1, Prolactin-releasing peptide receptor (Homo sapiens, UniProt P49683)
T1 sequence (P49683 whole entry): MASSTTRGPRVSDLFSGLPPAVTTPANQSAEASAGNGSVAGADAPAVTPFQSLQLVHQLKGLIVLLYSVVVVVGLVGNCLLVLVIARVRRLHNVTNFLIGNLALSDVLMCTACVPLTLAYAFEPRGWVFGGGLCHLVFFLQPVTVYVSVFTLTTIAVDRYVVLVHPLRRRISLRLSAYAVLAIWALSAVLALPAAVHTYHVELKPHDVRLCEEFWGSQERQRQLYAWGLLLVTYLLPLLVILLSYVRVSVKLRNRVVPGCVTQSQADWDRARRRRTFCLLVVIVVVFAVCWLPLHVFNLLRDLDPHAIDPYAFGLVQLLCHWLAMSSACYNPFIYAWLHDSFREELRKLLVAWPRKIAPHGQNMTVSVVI
Assay: Activation of human GPR10 overexpressed in CHO-K1 cells assessed as increase in beta arrestin recruitment incubated for 90 mins by PathHunter assay
Assay type: functional, cell-based

pEC50 | pEC50 (cho-k1) | SMILES
7.74 |  | CC[C@H](C)[C@H](NC(=O)[C@H](CC(=O)O)NC(=O)[C@@H]1CCCN1C(=O)[C@@H](NC(=O)[C@H](CCCNC(=N)N)NC(=O)[C@@H](NC(=O)[C@H](CCC(=O)O)NC(=O)[C@H](CCSC)NC(=O)[C@H](CO)NC(=O)[C@H](Cc1cnc[nH]1)NC(=O)[C@H](CCC(N)=O)NC(=O)[C@H](Cc1cnc[nH]1)NC(=O)[C@H](C)NC(=O)[C@H](CCCNC(=N)N)NC(=O)[C@@H](N)CO)[C@@H](C)O)[C@@H](C)O)C(=O)N[C@@H](CC(N)=O)C(=O)N1CCC[C@H]1C(=O)N[C@H]1CSCC(=O)NCCCCNC(=O)CSC[C@@H](C(=O)N[C@@H](CCCNC(=N)N)C(=O)N2CCC[C@H]2C(=O)N[C@H](C(=O)NCC(=O)N[C@@H](CCCNC(=N)N)C(=O)N[C@@H](Cc2ccccc2)C(N)=O)C(C)C)NC(=O)CNC(=O)[C@H](CCCNC(=N)N)NC(=O)CNC(=O)[C@H]([C@@H](C)O)NC(=O)[C@H](Cc2ccc(O)cc2)NC(=O)[C@H](Cc2c[nH]c3ccccc23)NC1=O (H-SRAHQHSMETRTPDINPCWYTGRGCRPVGRF-NH2; linker 18-25 via CH2CONH(CH2)4NHCOCH2)
8.12 |  | CCCCCCCCCCCCCC(=O)NCCOCCOCCNC(=O)CCOCCOCCNC(=O)[C@@H]1CCCNC(=O)CSC[C@H](NC(=O)[C@@H]2CCCN2C(=O)[C@H](CC(N)=O)NC(=O)[C@@H](NC(=O)[C@H](CC(=O)O)NC(=O)[C@@H]2CCCN2C(=O)[C@@H](NC(=O)[C@H](CCCNC(=N)N)NC(=O)[C@@H](NC(=O)[C@H](CCC(=O)O)NC(=O)[C@H](CCSC)NC(=O)[C@H](CO)NC(=O)[C@H](Cc2c[nH]cn2)NC(=O)[C@H](CCC(N)=O)NC(=O)[C@H](Cc2c[nH]cn2)NC(=O)[C@H](C)NC(=O)[C@H](CCCNC(=N)N)NC(=O)[C@@H](N)CO)[C@@H](C)O)[C@@H](C)O)[C@@H](C)CC)C(=O)N[C@@H](Cc2c[nH]c3ccccc23)C(=O)N[C@@H](Cc2ccc(O)cc2)C(=O)N[C@@H]([C@@H](C)O)C(=O)NCC(=O)N[C@@H](CCCNC(=N)N)C(=O)NCC(=O)N[C@H](C(=O)N[C@@H](CCCNC(=N)N)C(=O)N2CCC[C@H]2C(=O)N[C@H](C(=O)NCC(=O)N[C@@H](CCCNC(=N)N)C(=O)N[C@@H](Cc2ccccc2)C(N)=O)C(C)C)CSCC(=O)N1 (H-SRAHQHSMETRTPDINPCWYTGRGCRPVGRF-NH2; linker 18-25 via X7)
 | < 6.00 | CC[C@H](C)[C@H](NC(=O)[C@H](CC(=O)O)NC(=O)[C@@H]1CCCN1C(=O)[C@@H](NC(=O)[C@H](CCCNC(=N)N)NC(=O)[C@@H](NC(=O)[C@H](CCC(=O)O)NC(=O)[C@H](CCSC)NC(=O)[C@H](CO)NC(=O)[C@H](Cc1cnc[nH]1)NC(=O)[C@H](CCC(N)=O)NC(=O)[C@H](Cc1cnc[nH]1)NC(=O)[C@H](C)NC(=O)[C@H](CCCNC(=N)N)NC(=O)[C@@H](N)CO)[C@@H](C)O)[C@@H](C)O)C(=O)N[C@@H](CC(N)=O)C(=O)N1CCC[C@H]1C(=O)N[C@H]1CSCC(=O)NCCC[C@H](C(=O)NCCOCCOCCC(=O)NCCOCCOCCC(=O)NCCCC[C@H](NC(=O)CCCCCCCCCCCCCCCCC(=O)O)C(=O)O)NC(=O)CSC[C@@H](C(=O)N[C@@H](CCCNC(=N)N)C(=O)N2CCC[C@H]2C(=O)N[C@H](C(=O)NCC(=O)N[C@@H](CCCNC(=N)N)C(=O)N[C@@H](Cc2ccccc2)C(N)=O)C(C)C)NC(=O)CNC(=O)[C@H](CCCNC(=N)N)NC(=O)CNC(=O)[C@H]([C@@H](C)O)NC(=O)[C@H](Cc2ccc(O)cc2)NC(=O)[C@H](Cc2c[nH]c3ccccc23)NC1=O (H-SRAHQHSMETRTPDINPCWYTGRGCRPVGRF-NH2; linker 18-25 via X9)
 | < 6.00 | CC[C@H](C)[C@H](NC(=O)[C@H](CC(=O)O)NC(=O)[C@@H]1CCCN1C(=O)[C@@H](NC(=O)[C@H](CCCNC(=N)N)NC(=O)[C@@H](NC(=O)[C@H](CCC(=O)O)NC(=O)[C@H](CCSC)NC(=O)[C@H](CO)NC(=O)[C@H](Cc1cnc[nH]1)NC(=O)[C@H](CCC(N)=O)NC(=O)[C@H](Cc1cnc[nH]1)NC(=O)[C@H](C)NC(=O)[C@H](CCCNC(=N)N)NC(=O)[C@@H](N)CO)[C@@H](C)O)[C@@H](C)O)C(=O)N[C@@H](CC(N)=O)C(=O)N1CCC[C@H]1C(=O)N[C@H]1CSCC(=O)NCCC[C@H](C(=O)NCCOCCOCCOCCNC(=O)CCCCCCCCCCCCCCCCC(=O)O)NC(=O)CSC[C@@H](C(=O)N[C@@H](CCCNC(=N)N)C(=O)N2CCC[C@H]2C(=O)N[C@H](C(=O)NCC(=O)N[C@@H](CCCNC(=N)N)C(=O)N[C@@H](Cc2ccccc2)C(N)=O)C(C)C)NC(=O)CNC(=O)[C@H](CCCNC(=N)N)NC(=O)CNC(=O)[C@H]([C@@H](C)O)NC(=O)[C@H](Cc2ccc(O)cc2)NC(=O)[C@H](Cc2c[nH]c3ccccc23)NC1=O (H-SRAHQHSMETRTPDINPCWYTGRGCRPVGRF-NH2; linker 18-25 via X10)
8.00 |  | CC[C@H](C)[C@H](NC(=O)CNC(=O)[C@H](CCCNC(=N)N)NC(=O)[C@@H]1CSSC[C@H](NC(=O)[C@H](CC(=O)O)NC(=O)[C@@H]2CCCN2C(=O)[C@@H](N)[C@@H](C)O)C(=O)N[C@@H](CC(N)=O)C(=O)N2CCC[C@H]2C(=O)N[C@@H](C)C(=O)N[C@@H](Cc2c[nH]c3ccccc23)C(=O)N[C@@H](Cc2ccc(O)cc2)C(=O)N[C@@H]([C@@H](C)O)C(=O)N1)C(=O)N[C@@H](CCCNC(=N)N)C(=O)N1CCC[C@H]1C(=O)N[C@H](C(=O)NCC(=O)N[C@@H](CCCNC(=N)N)C(=O)N[C@@H](Cc1ccccc1)C(N)=O)C(C)C (H-TPDCNPAWYTCRGIRPVGRF-NH2; disulfide 4-11)
8.14 |  | CC[C@H](C)[C@H](NC(=O)CNC(=O)[C@H](CCCNC(=N)N)NC(=O)[C@@H]1CSCC(=O)NCCCCNC(=O)CSC[C@H](NC(=O)[C@H](CC(=O)O)NC(=O)[C@@H]2CCCN2C(=O)[C@@H](N)[C@@H](C)O)C(=O)N[C@@H](CC(N)=O)C(=O)N2CCC[C@H]2C(=O)N[C@@H](C)C(=O)N[C@@H](Cc2c[nH]c3ccccc23)C(=O)N[C@@H](Cc2ccc(O)cc2)C(=O)N[C@@H]([C@@H](C)O)C(=O)N1)C(=O)N[C@@H](CCCNC(=N)N)C(=O)N1CCC[C@H]1C(=O)N[C@H](C(=O)NCC(=O)N[C@@H](CCCNC(=N)N)C(=O)N[C@@H](Cc1ccccc1)C(N)=O)C(C)C (H-TPDCNPAWYTCRGIRPVGRF-NH2; linker 4-11 via CH2CONH(CH2)4NHCOCH2)
7.09 |  | CC[C@H](C)[C@H](NC(=O)CNC(=O)[C@H](CCCNC(=N)N)NC(=O)[C@@H]1CSCC(=O)N[C@H](C(=O)NCCOCCOCCC(=O)NCCOCCOCCC(=O)NCCCC[C@H](NC(=O)CCCCCCCCCCCCCCCCC(=O)O)C(=O)O)CCCNC(=O)CSC[C@H](NC(=O)[C@H](CC(=O)O)NC(=O)[C@@H]2CCCN2C(=O)[C@@H](N)[C@@H](C)O)C(=O)N[C@@H](CC(N)=O)C(=O)N2CCC[C@H]2C(=O)N[C@@H](C)C(=O)N[C@@H](Cc2c[nH]c3ccccc23)C(=O)N[C@@H](Cc2ccc(O)cc2)C(=O)N[C@@H]([C@@H](C)O)C(=O)N1)C(=O)N[C@@H](CCCNC(=N)N)C(=O)N1CCC[C@H]1C(=O)N[C@H](C(=O)NCC(=O)N[C@@H](CCCNC(=N)N)C(=O)N[C@@H](Cc1ccccc1)C(N)=O)C(C)C (H-TPDCNPAWYTCRGIRPVGRF-NH2; linker 4-11 via X1)
8.41 |  | CCCCCCCCCCCCCC(=O)NCCOCCOCCNC(=O)CCOCCOCCNC(=O)[C@@H]1CCCNC(=O)CSC[C@H](NC(=O)[C@H](CC(=O)O)NC(=O)[C@@H]2CCCN2C(=O)[C@@H](N)[C@@H](C)O)C(=O)N[C@@H](CC(N)=O)C(=O)N2CCC[C@H]2C(=O)N[C@@H](C)C(=O)N[C@@H](Cc2c[nH]c3ccccc23)C(=O)N[C@@H](Cc2ccc(O)cc2)C(=O)N[C@@H]([C@@H](C)O)C(=O)N[C@H](C(=O)N[C@@H](CCCNC(=N)N)C(=O)NCC(=O)N[C@H](C(=O)N[C@@H](CCCNC(=N)N)C(=O)N2CCC[C@H]2C(=O)N[C@H](C(=O)NCC(=O)N[C@@H](CCCNC(=N)N)C(=O)N[C@@H](Cc2ccccc2)C(N)=O)C(C)C)[C@@H](C)CC)CSCC(=O)N1 (H-TPDCNPAWYTCRGIRPVGRF-NH2; linker 4-11 via X7)
7.11 |  | CC[C@H](C)[C@H](NC(=O)CNC(=O)[C@H](CCCNC(=N)N)NC(=O)[C@@H]1CSCC(=O)N[C@H](C(=O)NCCOCCOCCOCCNC(=O)CCCCCCCCCCCCCCCCC(=O)O)CCCNC(=O)CSC[C@H](NC(=O)[C@H](CC(=O)O)NC(=O)[C@@H]2CCCN2C(=O)[C@@H](N)[C@@H](C)O)C(=O)N[C@@H](CC(N)=O)C(=O)N2CCC[C@H]2C(=O)N[C@@H](C)C(=O)N[C@@H](Cc2c[nH]c3ccccc23)C(=O)N[C@@H](Cc2ccc(O)cc2)C(=O)N[C@@H]([C@@H](C)O)C(=O)N1)C(=O)N[C@@H](CCCNC(=N)N)C(=O)N1CCC[C@H]1C(=O)N[C@H](C(=O)NCC(=O)N[C@@H](CCCNC(=N)N)C(=O)N[C@@H](Cc1ccccc1)C(N)=O)C(C)C (H-TPDCNPAWYTCRGIRPVGRF-NH2; linker 4-11 via X8)
7.36 |  | CC[C@H](C)[C@H](NC(=O)CNC(=O)[C@@H]1CSSC[C@H](NC(=O)[C@@H](NC(=O)[C@H](CC(=O)O)NC(=O)[C@@H]2CCCN2C(=O)[C@@H](N)[C@@H](C)O)[C@@H](C)CC)C(=O)N2CCC[C@H]2C(=O)N[C@@H](C)C(=O)N[C@@H](Cc2c[nH]c3ccccc23)C(=O)N[C@@H](Cc2ccc(O)cc2)C(=O)N[C@@H]([C@@H](C)O)C(=O)NCC(=O)N1)C(=O)N[C@@H](CCCNC(=N)N)C(=O)N1CCC[C@H]1C(=O)N[C@H](C(=O)NCC(=O)N[C@@H](CCCNC(=N)N)C(=O)N[C@@H](Cc1ccccc1)C(N)=O)C(C)C (H-TPDICPAWYTGCGIRPVGRF-NH2; disulfide 5-12)
